Test results: patent publication US11981711B2, “Methods of treating spinal cord injury using a chondroitin sulfate proteoglycan (CSPG) reduction peptide (CRP) comprising a cell membrane penetrating domain, a CSPG binding domain, and a lysosome targeting domain” (The Cleveland Clinic Foundation, priority 2017, dated 2024)

Tests used:
[1] = test system: arginase 1, iNOS, TNF-α; assay: qRT-PCR of markers for pro- vs. anti-inflammatory macrophages in spinal cord segments caudal to injury; type: in vivo, rat; details: vs scrambled peptide
Experimental: Rats were treated once per day beginning one day after SCI with SRP or scrambled peptide (scr) and mRNA was then harvested and analyzed by qRT-PCR. […] C.

[2] = test system: STAT3; assay: STAT3 activation (phospho-STAT3 Tyr705) in spinal cord after SCI, SRP treatment; type: in vivo, rat; details: 7 days after SCI; once per day beginning one day after SCI
Excerpt: (§1) Graphs represent mean±SEM of five samples per group for the ratios of SOCS3 to actin (B) and p-STAT3 to STAT3 (C). +p<0.05, ++p<0.01, and +++p<0.001 compared to normal animals, and *p<0.05 and ***p<0.001 compared to scrambled peptide animals (two way ANOVA with Bonferroni multiple analyses).

[3] = test system: spinal cord injury (SCI); assay: BBB open field locomotion test after T8 contusive SCI, SRP treatment; type: in vivo, rat; details: subcutaneous daily for one month beginning one day after SCI; vs scrambled peptide; entire observation period
Excerpt: (§2) In this Example, the SRP has been applied in a preclinical rat model to test the efficacy of the treatment of spinal cord injury (SCI) in a manner similar to Example 1 above for CRP.
Animals were subcutaneously injected with SRP daily for one month beginning one day after SCI and assessed by the BBB open field locomotion test to evaluate hind limb motor function at the designated time points. […] Values represent mean±SEM.

[4] = test system: TBK1 and mitophagy adaptors; assay: TBK1 and mitophagy adaptors in spinal cord after SCI, SRP treatment; type: in vivo, rat; details: vs scrambled peptide
Excerpt: (A). Graphs represented mean±SEM of six samples per group for the % to GAPDH (B). *p<0.05, **p<0.01 and ***p<0.001 compared to scrambled peptide animals (two-tailed t test, n=3 per group).

[5] = test system: ED1+macrophages/microglia; assay: Double immunolabeling of ED1 and GFAP in spinal cord after SCI, SRP treatment; type: in vivo, rat; details: three months post-SCI, vs scrambled peptide
Experimental: SRP treatment beginning one day after SCI was administered for 30 consecutive days and then spinal cords were harvested three months post-SCI for double immunolabeling of ED1 and GFAP.

[6] = biological target: T1, SOCS3 (Rattus norvegicus, UniProt O88583); assay: SOCS3 level in sciatic nerve after sciatic nerve transection, SRP treatment; type: in vivo; set-up: from tissue; host or cells: sciatic nerve; details: once per day for 4 consecutive days beginning immediately after transection; vs scrambled peptide
T1 sequence (O88583 1-225): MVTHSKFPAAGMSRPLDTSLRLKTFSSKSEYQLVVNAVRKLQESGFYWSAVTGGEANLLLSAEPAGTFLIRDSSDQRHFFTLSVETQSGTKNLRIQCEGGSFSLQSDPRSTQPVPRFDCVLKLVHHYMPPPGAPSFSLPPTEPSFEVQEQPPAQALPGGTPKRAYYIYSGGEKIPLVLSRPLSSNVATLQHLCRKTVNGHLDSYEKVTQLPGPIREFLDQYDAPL

[7] = test system: spinal cord injury (SCI); assay: Urodynamic analyses (CMG, EUS EMG) after T8 contusive SCI, SRP treatment; type: in vivo, rat; details: 3 months post-SCI
Experimental: as §2
Animals were treated daily with SRP for one month, beginning one day after SCI. Urodynamic analyses were conducted 3 months post-SCI. […] EUS EMG recording were conducted 3 months post-SCI.

[8] = biological target: T1, SOCS3; assay: SOCS3 protein level in spinal cord after SCI, SRP treatment; type: in vivo; set-up: from tissue; host or cells: rat spinal cord (epicenter and caudal segments); details: 7 days after SCI; once per day beginning one day after SCI; vs scrambled peptide
Excerpt: as §2, §1

[9] = biological target: T2, SOCS1 (Rattus norvegicus, UniProt Q9QX78); assay: SOCS1 protein level in spinal cord after SCI, SRP treatment; type: in vivo; details: 7 days after SCI; once per day beginning one day after SCI
T2 construct: from tissue; host or cells: rat spinal cord
T2 sequence (Q9QX78 1-212): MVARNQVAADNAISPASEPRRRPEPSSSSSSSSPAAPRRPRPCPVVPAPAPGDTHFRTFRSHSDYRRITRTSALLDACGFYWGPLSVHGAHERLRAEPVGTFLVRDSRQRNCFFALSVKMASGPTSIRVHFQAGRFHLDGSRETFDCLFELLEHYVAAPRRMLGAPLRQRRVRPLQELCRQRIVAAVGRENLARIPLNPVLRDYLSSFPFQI

[10] = test system: chondroitin sulfate proteoglycan (CSPG); assay: CSPG expression around the spinal cord lesion after contusive SCI, treatment from one day after SCI; type: in vivo, rat; details: two weeks after contusive SCI; treatment starting one day after SCI; vs vehicle
Excerpt: (§3) In this Example, the CRP has been applied in a preclinical rat model to test the efficacy of the treatment of spinal cord injury (SCI). The injury was made at thoracic 8 level using contusive injury device. The contusive SCI is the most clinical relevance among all experimental SCI models. We have assessed both motor and bladder control as functional outcomes and analyzed anatomical evidences to support these findings. We also selected sub-acute phase (ONE-DAY after SCI) and chronic phase (TWO-MONTHs after SCI) to start our treatment.
Furthermore CRP can efficiently improve locomotion and bladder electromyography (EMG) activities and voiding patterns after SCI.

[11] = test system: spinal cord injury (SCI); details: cited from earlier work
[12] = test system: spinal cord injury (SCI); assay: Locomotion (BBB 21-point score) and gait after chronic SCI, treatment from two months after SCI; type: in vivo, rat
Excerpt: Basso, Beattie, and Bresnahan (BBB) 21-point scoring test is used as the locomotion assessment after SCI. SCI causes significant deficits on locomotion function as indicated by the significant drop of BBB scores from 21 of the normal rats. […] However, ISP treatment slightly decreases BBB scores from 11.667±0.211 (two months after SCI) to 11.00±0.577 (two months plus 42 days after SCI) (A).
as §3
The above were followed up with studies to evaluate the treatment effects of CRP in chronic SCI. The chronic SCI is not only way more challenge to be repaired but also is the clinical status of the majority of patients with SCI.

[13] = once per day beginning one day after SCI

For “YGRKKRRQRRR-VQpYSTVVHS-KFERQKILDQRFFE [SRP]”, the “arginase 1 expression (mRNA)” value ([1]; 7 and 14 days post-SCI) was “increased”, the “iNOS expression (mRNA)” value ([1]; 7 and 14 days post-SCI) was “decreased” and the “TNF-α expression (mRNA)” value ([1]; 7 days post-SCI) was “decreased”. The “phospho-STAT3 Tyr705 (p-STAT3 to STAT3)” value [2] was “significant activation of STAT3”, the “hind limb locomotion (BBB)” value [3] was “significant improvement in hind limb locomotion” and the TBK1 protein level [4, 13] was “significantly increased”. The optineurin protein level [4, 13] was “significantly increased”, the “phospho-TBK1 Ser172 (p-TBK1)” value [4] was “significant activation of TBK1 and p62” and the “phosphor-p62 Ser403 (p-p62)” value [4] was “significant activation of TBK1 and p62”. For the same substance, the “SCI-increased ED1+macrophages/microglia” value ([5]; treatment for 30 consecutive days beginning one day after SCI) was “blocked SCI-induced upregulation of ED1+macrophages”, the “GFAP+tissues surrounding the lesion epicenter” value [5] was “preserved more GFAP+tissues” and the “sciatic nerve transection-upregulated SOCS3” value [6] was “significantly reduced”. For the same substance, the “bladder hyperactivity (CMG)” value ([7]; daily for one month beginning one day after SCI) was “significantly reduced bladder hyperactivity”, the “EUS EMG bursting activity during the void period” value ([7]; vs scrambled peptide) was “improvement in bursting activity” and the non-voiding contraction amplitude ([7]; vs scrambled peptide) was “significantly reduced”. For the same substance, the “number of non-voiding contractions” value ([7]; vs scrambled peptide) was “significantly reduced”, the residual volume ([7]; vs scrambled peptide) was “significantly reduced” and the “SCI-upregulated SOCS3 (ratio of SOCS3 to actin)” value [8] was “significantly reduced”. The SOCS1 level [9] was “not significantly altered”.

In the case of “intracellular sigma peptide [ISP, reference compound]”, the “CSPG in lesion epicenter and adjacent tissue” value [10] is listed as “does not decrease CSPG”, the “functional recovery after SCI” value ([11]; applied immediately after SCI in rats) is listed as “minor effects on promoting functional recovery” and the “effect on chronic SCI” value ([11]; applied two-month after SCI) is listed as “no effects on chronic SCI”. The “effect on CSPG in vivo” value ([11]; background statement) was “no effects on CSPG”, the BBB score ([12]; two months after SCI (start of treatment)) was 11.667±0.211 and the BBB score ([12]; two months plus 42 days after SCI, treatment starting two months after contusive SCI) was 11.00±0.577.
